Here are results for 14 molecules from paper PMC12638514, “Identification of Novel β‐Lactam Derivatives as Proteasome Inhibitors for Antitumor Therapy” (Archiv Der Pharmazie, 2025).

SMILES strings stand for the structures. Bounds are passed on as bounds.

Test [1] has as its target T1, human constitutive proteasome, β5 subunit (CT‐L) (Homo sapiens, UniProt P20618+P28074).
T1 construct: gift of Dr. Jiang-ping Wu (Notre-Dame Hospital, Montreal)
Kind of test: In vitro 20S proteasome chymotrypsin‐like (CT‐L, β5) inhibition assay. The class given is biochemical. As to conditions: CT‐L activity, substrate Suc‐LLVY‐AMC; mean ± SD of three independent experiments. The protocol: (§1) The human constitutive proteasome was generously provided by Dr. Jiang‐ping Wu (Notre‐Dame Hospital, Montreal, QC, Canada). […] The proteasome activity assay was performed in a total volume of 50 μL, with all samples diluted in Tris–HCl buffer (100 mM Tris–HCl, pH 8.0). […] 10 μL purified human proteasome (25 μg/mL) was added to 1 μL of each compound; after incubation for 15 min, the mixture was combined with 39 μL of the fluorogenic substrate. […] The IC50 values were calculated using the software GraphPad Prism4, employing the “sigmoidal dose–response (variable slope)” equation for curve fitting.

For test [2], the system named is RS4;11 cells. The test can be described thus: Cell proliferation inhibition assay (CCK8), RS4;11. Format: cell-based, human. As to conditions: mean ± SD. The protocol:
(§2) MV‐4‐11 cells (1 × 10^4 cells/well), RPMI‐8226 cells (8 × 10^3 cells/well), Molt4 cells (2 × 10^3 cells/well), RS4;11 cells (2 × 10^4 cells/well), and PBMC cells (2 × 10^4 cells/well) were seeded in 96‐well plates (Corning, 3599). Cells were treated with either 0.2% DMSO or fivefold dilutions of compounds from 10 mM stock solutions in DMSO (0.2% final concentration of DMSO) for 72 h. 10 μL of CCK8 reagent was added to each well, and the plates were incubated at 37°C for 3 h. Absorbance was measured at 450 nm and 650 nm using a Spectra Max Molecular Devices microplate reader. The final data were calibrated by OD450 nm‐OD650 nm.

Test [3] relates to normal peripheral blood mononuclear cells (PBMC). The test can be described thus: Cell proliferation inhibition assay (CCK8), PBMC. Format: cell-based. As to conditions: 72 h, mean ± SD, read-out: IC50 PBMC‐3Day. As to the method:
as §2

A further test has as its system RPMI‐8226 cells. The test can be described thus: Cell proliferation inhibition assay (CCK8), RPMI‐8226. The class given is cell-based. As to conditions: Homo sapiens, 72 h, mean ± SD. As to the method:
as §2

Another test has as its system MV‐4‐11 cells. Kind of test: Cell proliferation inhibition assay (CCK8), MV‐4‐11. Format: cell-based. As to conditions: Homo sapiens, MV4-11, 72 h, mean ± SD. As to the method:
as §2

The next test concerns Molt4 cells. Kind of test: Cell proliferation inhibition assay (CCK8), Molt4. The class given is cell-based. As to conditions: Homo sapiens, MOLT-4, 72 h, mean ± SD. The protocol:
as §2

Test [4] concerns the target proteasome β2 subunit (T‐L) (Homo sapiens, UniProt P49720+Q99436). Kind of test: Proteasome trypsin‐like (T‐L, β2) inhibition. Format: biochemical. As to conditions: T‐L activity; mean ± SD of three independent experiments. The protocol:
as §1

Test [5] deals with proteasome β1 subunit (C‐L) (Homo sapiens, UniProt P28072+Q99436). Kind of test: Proteasome caspase‐like (C‐L, β1) inhibition. The class given is biochemical. As to conditions: C‐L activity; mean ± SD of three independent experiments. The protocol: as §1
The subject of test [6] is rabbit 20S proteasome β5 (CT‐L). On the set-up: method as in PMID 24452398, PMID 21946808. As to conditions: Figure 2; cited from earlier work.
In test [7] the test system is RS4;11 cells. The test can be described thus: Apoptosis assay by flow cytometry. The class given is cell-based, human. As to conditions: 1, 2 and 4 μM, 12 h. As to the method:
(§3) Apoptosis was assessed using an Annexin V‐APC/7AAD apoptosis detection kit (GA1023‐KGA1026, Keygentec, Nanjing, China), followed by flow cytometry analysis. Briefly, cells were treated with the indicated drug concentration and durations or left untreated, then washed twice with PBS, stained with Annexin V‐APC/7AAD, and analyzed using flow cytometry (CytoFLEX flow cytometer, Beckman Coulter Inc.). RS4;11 cells were exposed to various concentrations of the compound or DMSO. Protein lysates were prepared using 4 × Laemmli sample buffer (161073, BIORAD, Richmond, USA). Protein samples were separated by SDS‐polyacrylamide gel electrophoresis (BIO‐RAD, Richmond, USA) and subsequently transferred to nitrocellulose (NC) membranes. Following a 90‐min blocking step with 5% skim milk at room temperature, the NC membranes were incubated with the primary antibody at 4 °C overnight, followed by three washes with TBST for 10 min each. The NC membranes were then incubated with secondary antibodies for 1.5 h at room temperature. Signals were detected by ECL (KF8001&KF8003, Affinity, China) using the BIO‐RAD ChemiDoc Touch Imaging System.

In test [8] the test system is RS4;11 cells. The test can be described thus: Western blot of apoptosis‐related and ubiquitinated proteins. The class given is cell-based, human. As to the method: as §3

For the molecule `C[C@H](NC(=O)c1cccnc1)C(=O)N[C@@H](CCc1ccccc1)C(=O)N[C@@H]1CN(c2ccc(F)cc2)C1=O` [Compound 70], the IC50 in test [1] is more than 10000 nM.
With `CC(C)C[C@H](NC(=O)[C@H](Cc1ccccc1)NC(=O)c1cnccn1)B(O)O` [Bortezomib, reference compound], the IC50 in the test on RS4;11 cells [2] (Homo sapiens, RS4-11, 72 h) was found to be 5.87 ± 0.93 nM; in test [3], 1.57 ± 0.19 nM; with RPMI‐8226 cells, 3.64 ± 0.52 nM; in the test on MV‐4‐11 cells it was 5.15 ± 1.09 nM; in the test with Molt4 cells, 13.3 ± 2.47 nM.
In test [1], `CSCC[C@H](NC(=O)c1cccnc1)C(=O)N[C@@H](CCc1ccccc1)C(=O)N[C@@H]1CN(c2ccc(F)cc2)C1=O` [Compound 75] returned an IC50 of more than 10000 nM.
Consider `Cc1ccc(N2C[C@@H](NC(=O)[C@H](CCc3ccccc3)NC(=O)[C@H](CC(=O)NCC(C)(C)C)NC(=O)c3cccnc3)C2=O)cc1` [Compound 76, (S)‐N ^4‐Neopentyl‐2‐(nicotinamido)‐N ^1‐[(S)‐1‐oxo‐1‐{[(R)‐2‐oxo‐1‐(p‐tolyl)azetidin‐3‐yl]amino}‐4‐phenylbutan‐2‐yl]succinamide], for which the IC50 in test [4] was more than 10000 nM; with RS4;11 cells [2] (Homo sapiens, RS4-11, 72 h) it was 860 ± 240 nM; in test [5] it was more than 10000 nM; in the test on RPMI‐8226 cells, 8050 ± 1170 nM; in test [1] it was 72 ± 14.9 nM; with MV‐4‐11 cells, more than 20000 nM. For the same molecule, in the test on Molt4 cells, the IC50 was more than 10000 nM.
Turning to `CC(C)(C)CNC(=O)C[C@H](NC(=O)c1cccnc1)C(=O)N[C@@H](CCc1ccccc1)C(=O)N[C@@H]1CN(c2ccc(C(F)(F)F)cc2)C1=O` [Compound 79, (S)‐N ^4‐Neopentyl‐2‐(nicotinamido)‐N ^1‐[(S)‐1‐oxo‐1‐{[(R)‐2‐oxo‐1‐[4‐(trifluoromethyl)phenyl]azetidin‐3‐yl]amino}‐4‐phenylbutan‐2‐yl]succinamide], the IC50 was more than 10000 nM in [4]; 990 ± 170 nM with RS4;11 cells [2] (Homo sapiens, RS4-11, 72 h); more than 10000 nM in [5]; 3440 ± 440 nM in the test with RPMI‐8226 cells; 282 ± 33.6 nM in test [1]; 2750 ± 460 nM with MV‐4‐11 cells. Moreover, the IC50 with Molt4 cells is 2370 ± 230 nM.
Molecule `O=C(N[C@@H](Cc1ccccc1)C(=O)N[C@@H](CCc1ccccc1)C(=O)N[C@@H]1CN(c2ccc(F)cc2)C1=O)c1cccnc1` [Compound 74] registered an IC50 in test [1] of more than 10000 nM.
`C[C@H](NC(=O)c1cnccn1)C(=O)N[C@@H](CCc1ccccc1)C(=O)N[C@@H]1CN(c2ccc(F)cc2)C1=O` [Compound 71]: in test [1], the IC50 is more than 10000 nM.
With `CC(C)(C)CNC(=O)C[C@H](NC(=O)c1cnccn1)C(=O)N[C@@H](CCc1ccccc1)C(=O)N[C@H]1CN(c2ccc(F)cc2)C1=O` [Compound 69], the IC50 in test [4] is more than 10000 nM; in the test with RS4;11 cells [2] (Homo sapiens, RS4-11, 72 h), 1520 ± 670 nM; in test [5], more than 10000 nM; in the test with RPMI‐8226 cells it was 10200 ± 760 nM; in [1], 288 ± 57.2 nM; with MV‐4‐11 cells it was more than 20000 nM. In the test on Molt4 cells, this molecule displayed an IC50 of more than 10000 nM.
Regarding `CC[C@H](C)[C@@H]1C(=O)O[C@H]1C(=O)NCCC[C@H](NC(=O)[C@H](C)N)C(=O)O` [Belactosin C], the IC50 in test [6] was 210 nM.
In the case of `COc1ccc(N2CC(NC(=O)C(CCc3ccccc3)NC(=O)C(CC(=O)NCC(C)(C)C)NC(=O)c3cccnc3)C2=O)cc1` [Compound 78, (S)‐N ^1‐[(S)‐1‐{[(R)‐1‐(4‐Methoxyphenyl)‐2‐oxoazetidin‐3‐yl]amino}‐1‐oxo‐4‐phenylbutan‐2‐yl]‐N ^4‐neopentyl‐2‐(nicotinamido)succinimide], the IC50 was more than 10000 nM in test [4]; 500 ± 130 nM in the test with RS4;11 cells [2] (72 h); less than 1000 nM in the test with RS4;11 cells [2] (Homo sapiens, RS4-11, 72 h); more than 10000 nM in test [5]; 17200 ± 1930 nM in [3]; 2340 ± 340 nM with RPMI‐8226 cells. For the same molecule, the values for the IC50 (in test [1]; with MV‐4‐11 cells; in the test with Molt4 cells) were 142 ± 30.1 nM, 2780 ± 410 nM and 3780 ± 270 nM, respectively. Besides, the “induction of apoptosis in RS4;11 cells” value in the test with RS4;11 cells [7] is “triggered cell apoptosis in a dose‐dependent manner”. For the same molecule, the “activation and cleavage of caspase‐3 and PARP” value in the test on RS4;11 cells [8] (RS4;11, 1, 2 and 4 μM, 8 h, western blot) is “detectable across all samples”. In addition, in the test on RS4;11 cells [8] (RS4;11, western blot), the “accumulation of poly‐ubiquitinated proteins” value is recorded as “significant accumulation of poly‐ubiquitinated proteins”.
Take `O=C(N[C@@H](CCc1ccccc1)C(=O)N[C@@H](CCc1ccccc1)C(=O)N[C@@H]1CN(c2ccc(F)cc2)C1=O)c1cccnc1` [Compound 73]: the IC50 in [1] was more than 10000 nM.
Same read-out and setting: the figure for `CC(C)(C)CNC(=O)C[C@H](NC(=O)c1cnccn1)C(=O)N[C@@H](CCc1ccccc1)C(=O)N[C@@H]1CN(c2ccc(F)cc2)C1=O` [Compound 68] is more than 10000 nM.
Take `CN(C)c1ccc(N2C[C@@H](NC(=O)[C@H](CCc3ccccc3)NC(=O)[C@H](CC(=O)NCC(C)(C)C)NC(=O)c3cccnc3)C2=O)cc1` [Compound 77, (S)‐N ^1‐[(S)‐1‐{[(R)‐1‐[4‐(Dimethylamino)phenyl]‐2‐oxoazetidin‐3‐yl]amino}‐1‐oxo‐4‐phenylbutan‐2‐yl]‐N ^4‐neopentyl‐2‐(nicotinamido)succinamide]: the IC50 in test [4] was more than 10000 nM; in test [5] it was more than 10000 nM; in test [1], 132 ± 14.8 nM.
Molecule `CC(C)[C@H](NC(=O)c1cccnc1)C(=O)N[C@@H](CCc1ccccc1)C(=O)N[C@@H]1CN(c2ccc(F)cc2)C1=O` [Compound 72] displayed an IC50 in test [1] of more than 10000 nM.
